The source of these data is patent US20230114241A1, “METHODS OF TREATING EPILEPSY USING THE SAME” (Trevena, Inc., priority 2019, published 2023).

Each structure is given as a SMILES string.

Assay [1] deals with T1, human sphingosine-1-phosphate receptor 1 (S1P1) (Homo sapiens, UniProt P21453). The assay is described as follows: Inhibition of cAMP production (HTRF cAMP HiRange), S1P1 CHO-K1 cells. It counts as cell-based. As to conditions: for Emax: CHO-K1, efficacy normalized to maximum efficacy of fingolimod, read-out: hS1P1 CAMP SPAN; for EC50: inhibition of cAMP production, S1P1, read-out: hS1P1 CAMP pEC50 (converted). An outline of the steps: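 CHO-K1 cells co-expressing human S1P1 (C-terminal ProLink tag) and EA-β-arrestin2, plated overnight; after 30 min compound incubation at 37 °C, intracellular cAMP measured by HTRF TR-FRET following 1 h at room temperature. Values normalized to fingolimod.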
Target sequence in this assay (P21453 whole entry): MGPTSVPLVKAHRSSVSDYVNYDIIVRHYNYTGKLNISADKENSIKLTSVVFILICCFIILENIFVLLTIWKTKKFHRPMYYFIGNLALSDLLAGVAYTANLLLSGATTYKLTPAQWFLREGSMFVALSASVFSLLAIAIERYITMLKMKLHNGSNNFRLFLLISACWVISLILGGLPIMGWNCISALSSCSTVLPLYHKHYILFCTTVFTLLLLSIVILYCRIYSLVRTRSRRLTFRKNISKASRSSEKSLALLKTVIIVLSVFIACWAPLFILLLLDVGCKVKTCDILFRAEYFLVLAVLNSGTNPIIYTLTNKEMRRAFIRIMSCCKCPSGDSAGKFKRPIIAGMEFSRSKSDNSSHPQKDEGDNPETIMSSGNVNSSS

Assay [2] deals with T1, human sphingosine-1-phosphate receptor 1 (S1P1). Nature of the assay: β-Arrestin2 recruitment assay (PathHunter), S1P1 CHO-K1 cells. Conditions: for Emax: CHO-K1, efficacy normalized to maximum efficacy of fingolimod, read-out: hS1P1 B-arrestin2 SPAN; for EC50: β-arrestin2 recruitment, S1P1, read-out: hS1P1 B-arrestin2 pEC50 (converted). Type of assay: cell-based. An outline of the steps:
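CHO-K1 cells co-expressing EA-β-arrestin2 and ProLink-tagged human S1P1 plated overnight, then stimulated 60 min at 37 °C. Enzyme-fragment complementation (β-galactosidase) detected after 1 h at room temperature by luminescence; values normalized to fingolimod.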
Target sequence in this assay (P21453 whole entry): as above
Target sequence in this assay (P32121 whole entry partner): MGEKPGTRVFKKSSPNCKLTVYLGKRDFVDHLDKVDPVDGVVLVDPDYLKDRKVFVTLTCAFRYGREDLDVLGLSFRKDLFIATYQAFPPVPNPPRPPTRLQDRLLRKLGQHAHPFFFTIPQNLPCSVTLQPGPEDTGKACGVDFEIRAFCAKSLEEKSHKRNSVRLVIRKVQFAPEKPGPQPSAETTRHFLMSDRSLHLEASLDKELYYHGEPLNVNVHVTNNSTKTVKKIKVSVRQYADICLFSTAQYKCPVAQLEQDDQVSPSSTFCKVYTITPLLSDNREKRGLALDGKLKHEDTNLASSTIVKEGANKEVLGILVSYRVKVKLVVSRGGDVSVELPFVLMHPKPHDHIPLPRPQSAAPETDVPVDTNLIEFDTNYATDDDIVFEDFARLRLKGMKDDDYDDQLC

With `COc1ccccc1-c1noc(-c2ccc3c(ccn3C(C)C)c2)n1` [Compound 372, 5-(1-isopropyl-1H-indol-5-yl)-3-(2-methoxy-phenyl)-1,2,4-oxadiazole], in assay [1], the Emax was over 75% and the EC50 was under 0.316 µM. In assay [2], the Emax was over 75% and the EC50 was under 10 µM.
With `COc1ccccc1-c1noc(-c2ccc3c(c2)ncn3C(C)C)n1` [Compound 373, 5-(1-isopropyl-1H-benzo[d]imidazol-5-yl)-3-(2-methoxy-phenyl)-1,2,4-oxadiazole], in assay [1], the Emax is over 75% and the EC50 was over 0.316 µM. In addition, in assay [2], the Emax is over 75% and the EC50 was over 10 µM.
Take `CC(C)n1ccc2cc(-c3nc(-c4ccccc4F)ns3)ccc21` [Compound 374, 5-[3-(2-fluorophenyl)-1,2,4-thiadiazol-5-yl]-1-(propan-2-yl)-1H-indole]: in assay [1], the Emax was under 75% and the EC50 is over 0.316 µM. Moreover, in assay [2], the Emax is under 75% and the EC50 is over 10 µM.
As to `COc1ccccc1-c1nc(-c2ccc3c(ccn3C(C)C)c2)ns1` [Compound 375, 5-[5-(2-methoxy-phenyl)-1,2,4-thiadiazol-3-yl]-1-(propan-2-yl)-1H-indole], in assay [1], the Emax was over 75% and the EC50 is under 0.316 µM. For the same molecule, in assay [2], the Emax is under 75% and the EC50 is under 10 µM.
For the molecule `Cc1ccncc1-c1noc(-c2ccc3ccsc3n2)n1` [Compound 376, 4-methyl-3-(5-{thieno[2,3-b]pyridin-6-yl}-1,2,4-oxadiazol-3-yl)pyridine], in assay [1], the Emax was under 75% and the EC50 is over 0.316 µM. Moreover, in assay [2], the Emax is under 75% and the EC50 is over 10 µM.
On to `CN1C(=O)Cc2cc(-c3nc(-c4cccnc4)no3)ccc21` [Compound 377, 1-methyl-5-[3-(pyridin-3-yl)-1,2,4-oxadiazol-5-yl]-2,3-dihydro-1H-indol-2-one], for which, in assay [1], the Emax was under 75% and the EC50 was over 0.316 µM. In assay [2], the Emax was under 75% and the EC50 was over 10 µM.
As to `CC(C)n1ccc2cc(-c3nsc(-c4ccccc4F)n3)ccc21` [Compound 380, 5-[5-(2-fluorophenyl)-1,2,4-thiadiazol-3-yl]-1-(propan-2-yl)-1H-indole], the Emax in assay [1] and in assay [2] was under 75% in each case. Besides, the figures for the EC50 in assay [1] and in assay [2] were over 0.316 µM and over 10 µM, respectively.
As for `Cc1ccccc1-c1nsc(-c2ccc3c(ccn3C(C)C)c2)n1` [Compound 381, 5-[3-(2-methylphenyl)-1,2,4-thiadiazol-5-yl]-1-(propan-2-yl)-1H-indole], the Emax in assay [1] and in assay [2] was under 75% throughout. The EC50 in assay [1] was over 0.316 µM; in assay [2] it was under 10 µM.
Take `Cc1ccccc1-c1noc(-c2cnc3c(c2)nnn3C(C)C)n1` [Compound 382, 3-(2-methylphenyl)-5-[3-(propan-2-yl)-3H-[1,2,3]triazolo[4,5-b]pyridin-6-yl]-1,2,4-oxadiazole]: in assay [1], the Emax was over 75% and the EC50 was under 0.316 µM. For the same molecule, in assay [2], the Emax is over 75% and the EC50 is under 10 µM.
Consider `COc1ccccc1-c1noc(-c2cnc3c(c2)nnn3C(C)C)n1` [Compound 383, 3-(2-methoxyphenyl)-5-[3-(propan-2-yl)-3H-[1,2,3]triazolo[4,5-b]pyridin-6-yl]-1,2,4-oxadiazole], for which, in assay [1], the Emax is over 75% and the EC50 was under 0.316 µM. In addition, in assay [2], the Emax is over 75% and the EC50 was under 10 µM.
`O=C1CCc2cc(-c3nc(-c4cccnc4)no3)ccc2N1` [Compound 386, 6-[3-(pyridin-3-yl)-1,2,4-oxadiazol-5-yl]-1,2,3,4-tetrahydro-quinolin-2-one]: the Emax in assay [1] was over 75%; in assay [2], under 75%. Further, the EC50 in assay [1] was over 0.316 µM; in assay [2] it was over 10 µM.
Consider `CC(C)n1ccc2cc(-c3noc(-c4ccccc4F)n3)ccc21` [Compound 387, 5-(2-fluorophenyl)-3-(1-isopropyl-1H-indol-5-yl)-1,2,4-oxadiazole], for which, in assay [1], the Emax is over 75% and the EC50 is over 0.316 µM. Moreover, in assay [2], the Emax was over 75% and the EC50 is under 10 µM.
Regarding `CC(C)n1ccc2cc(-c3noc(-c4ccccc4Br)n3)ccc21` [Compound 388, 5-(2-bromophenyl)-3-(1-isopropyl-1H-indol-5-yl)-1,2,4-oxadiazole], the Emax in assay [1] and in assay [2] was over 75% each time. For the same molecule, the EC50 in assay [1] was under 0.316 µM; in assay [2], under 10 µM.
As to `Cc1ccccc1-c1nc(-c2ccc3c(ccn3C(C)C)c2)no1` [Compound 389, 3-(1-isopropyl-1H-indol-5-yl)-5-(o-tolyl)-1,2,4-oxadiazole], in assay [1], the Emax is over 75% and the EC50 is under 0.316 µM. In assay [2], the Emax is over 75% and the EC50 is under 10 µM.
As for `CC(C)n1ccc2cc(-c3noc(-c4ccccc4C(F)(F)F)n3)ccc21` [Compound 390, 3-(1-isopropyl-1H-indol-5-yl)-5-(2-(trifluoromethyl)phenyl)-1,2,4-oxadiazole], the Emax in assay [1] is over 75%; in assay [2] it was under 75%. Besides, the figures for the EC50 in assay [1] and in assay [2] were under 0.316 µM and under 10 µM, respectively.
As for `COc1cccc(-c2nc(-c3ccc4c(ccn4C(C)C)c3)no2)c1` [Compound 392, 3-(1-isopropyl-1H-indol-5-yl)-5-(3-methoxyphenyl)-1,2,4-oxadiazole], in assay [1], the Emax is under 75% and the EC50 was over 0.316 µM. Moreover, in assay [2], the Emax is under 75% and the EC50 was over 10 µM.
On to `COc1ccc(-c2nc(-c3ccc4c(ccn4C(C)C)c3)no2)cc1` [Compound 393, 3-(1-isopropyl-1H-indol-5-yl)-5-(4-methoxyphenyl)-1,2,4-oxadiazole], for which, in assay [1], the Emax is under 75% and the EC50 was over 0.316 µM. For the same molecule, in assay [2], the Emax is under 75% and the EC50 is over 10 µM.
With `CC(C)n1ccc2cc(-c3noc(-c4cccc(F)c4)n3)ccc21` [Compound 394, 5-(3-fluorophenyl)-3-(1-isopropyl-1H-indol-5-yl)-1,2,4-oxadiazole], in assay [1], the Emax is under 75% and the EC50 is over 0.316 µM. In addition, in assay [2], the Emax was under 75% and the EC50 is under 10 µM.
For the molecule `CC(C)n1ccc2cc(-c3noc(-c4ccncc4)n3)ccc21` [Compound 395, 3-(1-isopropyl-1H-indol-5-yl)-5-(pyridin-4-yl)-1,2,4-oxadiazole], in assay [1], the Emax is under 75% and the EC50 was under 0.316 µM. In assay [2], the Emax was over 75% and the EC50 was under 10 µM.
As for `CC(C)n1ccc2cc(-c3noc(-c4cccnc4)n3)ccc21` [Compound 396, 3-(1-isopropyl-1H-indol-5-yl)-5-(pyridin-3-yl)-1,2,4-oxadiazole], in assay [1], the Emax is under 75% and the EC50 was over 0.316 µM. Moreover, in assay [2], the Emax was over 75% and the EC50 was over 10 µM.
Consider `CC(C)n1ccc2cc(-c3noc(-c4ccccn4)n3)ccc21` [Compound 397, 3-(1-isopropyl-1H-indol-5-yl)-5-(pyridin-2-yl)-1,2,4-oxadiazole], for which the Emax in assay [1] was under 75%; in assay [2], over 75%. Also, the EC50 in assay [1] was over 0.316 µM; in assay [2] it was over 10 µM.
As to `CC(C)n1ccc2cc(-c3noc(-c4ccncc4F)n3)ccc21` [Compound 399, 5-(3-fluoropyridin-4-yl)-3-(1-isopropyl-1H-indol-5-yl)-1,2,4-oxadiazole], the figures for the Emax in assay [1] and in assay [2] were over 75% and under 75%, respectively. Further, the EC50 was under 0.316 µM in assay [1] and under 10 µM in assay [2].
For `CC(C)n1ccc2cc(-c3noc(-c4ccc(F)cc4)n3)ccc21` [Compound 400, 5-(4-fluorophenyl)-3-(1-isopropyl-1H-indol-5-yl)-1,2,4-oxadiazole] the same measures were under 75%, under 75%, over 0.316 µM and over 10 µM.
On the same counts, the results for `COc1ccccc1-c1csc(-c2cnc3c(ccn3C(C)C)c2)n1` [Compound 401, 2-(1-isopropyl-1H-pyrrolo[2,3-b]pyridin-5-yl)-4-(2-methoxy-phenyl)thiazole] are under 75%, under 75%, over 0.316 µM and over 10 µM.
In the case of `CC(C)n1ccc2cc(-c3nc(-c4ccccc4F)cs3)cnc21` [Compound 402, 4-(2-fluorophenyl)-2-(1-isopropyl-1H-pyrrolo[2,3-b]pyridin-5-yl)thiazole], in assay [1], the Emax was under 75% and the EC50 is under 0.316 µM. For the same molecule, in assay [2], the Emax is under 75% and the EC50 was over 10 µM.
As to `COc1cccc(-c2csc(-c3ccc4c(ccn4C(C)C)c3)n2)c1` [Compound 405, 2-(1-isopropylindol-5-yl)-4-(3-methoxy-phenyl)thiazole], the Emax in assay [1] and in assay [2] was under 75% each time. For the same molecule, the EC50 was over 0.316 µM in assay [1] and over 10 µM in assay [2].
`Cc1ccccc1-c1csc(-c2cnc3c(ccn3C(C)C)c2)n1` [Compound 407, 2-(1-isopropyl-pyrrolo[2,3-b]pyridin-5-yl)-4-(o-tolyl)thiazole]: the Emax is over 75% in assay [1] and under 75% in assay [2]. Besides, the results for the EC50 in assay [1] and in assay [2] were over 0.316 µM and over 10 µM, respectively.
